{"source": "paper PMC10017709", "about": "“Structural basis of selective cannabinoid CB2 receptor activation” (Nature Communications, 2023)", "key": {"CB1R QuadrupleTM1,7": {"target": "T1, CB1R QuadrupleTM1,7 (Homo sapiens, UniProt P21554, I119V/Q116K/S123C/T377K)", "T1 construct": "The WT CB1R and CB2R genes were subcloned into vector pcDNA3.1; HA signal peptide (N); expressed in transfected cells; host or cells: HEK293T (transient, membrane homogenates)", "T1 sequence (P21554 whole entry Q116K/I119V/S123C/T377K)": "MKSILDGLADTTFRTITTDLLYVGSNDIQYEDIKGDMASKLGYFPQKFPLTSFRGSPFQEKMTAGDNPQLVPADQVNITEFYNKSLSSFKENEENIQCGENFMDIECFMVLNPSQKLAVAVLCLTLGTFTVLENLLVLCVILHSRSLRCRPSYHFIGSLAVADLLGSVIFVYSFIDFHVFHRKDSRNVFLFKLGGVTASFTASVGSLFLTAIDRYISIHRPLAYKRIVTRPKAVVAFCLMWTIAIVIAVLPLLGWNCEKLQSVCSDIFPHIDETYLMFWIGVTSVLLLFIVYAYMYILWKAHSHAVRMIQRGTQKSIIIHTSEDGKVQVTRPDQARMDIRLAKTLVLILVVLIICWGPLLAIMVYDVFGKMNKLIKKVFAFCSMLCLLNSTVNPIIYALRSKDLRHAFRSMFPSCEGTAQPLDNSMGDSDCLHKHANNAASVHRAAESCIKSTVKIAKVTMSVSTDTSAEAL", "assay": "[3H]CP55,940 displacement assay, CB1R quadruple mutant", "format": "binding"}, "hCB1R WT": {"target": "hCB1R WT (Homo sapiens, UniProt P21554)", "sequence (P21554 whole entry)": "as the sequence (P21554 whole entry Q116K/I119V/S123C/T377K) above, with K116Q, V119I, C123S, K377T counted along it", "assay": "[35S]GTPγS G protein activation assay, CB1R WT", "format": "biochemical", "details": "CB1R WT; 10 µM agonist"}, "CB2R WT": {"target": "CB2R WT (Homo sapiens, UniProt P34972)", "sequence (P34972 whole entry)": "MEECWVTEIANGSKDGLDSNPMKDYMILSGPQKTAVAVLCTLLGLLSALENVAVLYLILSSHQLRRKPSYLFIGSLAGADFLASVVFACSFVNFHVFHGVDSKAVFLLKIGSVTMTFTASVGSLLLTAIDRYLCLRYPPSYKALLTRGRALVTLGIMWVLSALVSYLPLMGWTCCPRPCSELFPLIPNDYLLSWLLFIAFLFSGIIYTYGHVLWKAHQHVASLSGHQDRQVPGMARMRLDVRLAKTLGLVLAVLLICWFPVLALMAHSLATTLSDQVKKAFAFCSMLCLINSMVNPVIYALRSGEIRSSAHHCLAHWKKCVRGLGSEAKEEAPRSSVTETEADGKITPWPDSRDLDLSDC", "assay": "[3H]CP55,940 displacement assay, CB2R WT", "format": "binding", "details": "CB2R - WT, individual replicates"}, "CB2R-Quadruple^TM1,7": {"target": "CB2R-Quadruple^TM1,7 (Homo sapiens, UniProt P34972, C40S/K279T/K33Q/V36I)", "sequence (P34972 whole entry K33Q/V36I/C40S/K279T)": "as the sequence (P34972 whole entry) above, with K33Q, V36I, C40S, K279T counted along it", "assay": "[3H]CP55,940 displacement assay, CB2R quadruple mutant", "format": "binding", "details": "QuadrupleTM1,7, individual replicates"}, "CB1R I267ECL2L": {"target": "CB1R I267ECL2L (Homo sapiens, UniProt P21554, I267L)", "sequence (P21554 whole entry I267L)": "as the sequence (P21554 whole entry Q116K/I119V/S123C/T377K) above, with K116Q, V119I, C123S, I267L, K377T counted along it", "assay": "[35S]GTPγS assay, CB1R I267L mutant", "format": "biochemical", "details": "CB1R I267L; 10 µM agonist"}, "CB2R-I110^3.29L": {"target": "CB2R-I110^3.29L (Homo sapiens, UniProt P34972, I110L)", "sequence (P34972 whole entry I110L)": "as the sequence (P34972 whole entry) above, with I110L counted along it", "assay": "[3H]CP55,940 displacement assay, CB2R I110L mutant", "format": "binding", "details": "I1103.29L, individual replicates"}, "CB2R-E181^ECL2D": {"target": "CB2R-E181^ECL2D (Homo sapiens, UniProt P34972, E181D)", "sequence (P34972 whole entry E181D)": "as the sequence (P34972 whole entry) above, with E181D counted along it", "assay": "[35S]GTPγS assay, CB2R E181D mutant", "format": "biochemical", "details": "E181D mutant; at 10 µM compared to WT; read-out: Emax (%)"}, "CB2R-V261^6.51L": {"target": "CB2R-V261^6.51L (Homo sapiens, UniProt P34972, V261L)", "sequence (P34972 whole entry V261L)": "as the sequence (P34972 whole entry) above, with V261L counted along it", "assay": "[35S]GTPγS assay, CB2R V261L mutant", "format": "biochemical", "details": "for [35S]GTPγS binding: V2616.51L, individual replicates"}}, "note": "Several values for one entry are separate records, joined by “and”; a condition that tells them apart may be missing. Identical values can stand only once.", "data": [{"compound": "CC(C)(C)[C@@H](CO)NC(=O)c1nn(-c2c[n+]([O-])ccn2)c2c1C[C@@H]1C[C@H]21", "note": "[APD371]", "values": [{"measurement": "Displacement (%) of [3H]CP55,940", "setting": "CB1R QuadrupleTM1,7; CB1R Quadruple TM1,7, 10 µM compound", "value": "0 ± 25", "unit": "%"}, {"measurement": "percentage specific [3H]CP55,940 binding", "setting": "CB1R QuadrupleTM1,7; CB1R QuadrupleTM1,7, 10 µM ligand, replicates 1-3", "value": "125.90 percentage and 49.87 percentage and 125.34 percentage"}, {"measurement": "Agonist-mediated activation", "setting": "hCB1R WT", "value": "1.0 ± 0.0", "unit": "fold over its basal"}, {"measurement": "percentage specific [3H]CP55,940 binding", "setting": "CB2R WT; log [ligand] (M) -5", "value": "6.97% and 9.11% and 6.37%"}, {"measurement": "percentage specific [3H]CP55,940 binding", "setting": "CB2R WT; log [ligand] (M) -6", "value": "8.91% and 9.80% and 15.97%"}, {"measurement": "percentage specific [3H]CP55,940 binding", "setting": "CB2R WT; log [ligand] (M) -7", "value": "35.26% and 29.34% and 24.47%"}, {"measurement": "percentage specific [3H]CP55,940 binding", "setting": "CB2R WT; log [ligand] (M) -8", "value": "67.55% and 60.65% and 76.97%"}, {"measurement": "percentage specific [3H]CP55,940 binding", "setting": "CB2R WT; log [ligand] (M) -9", "value": "110.80% and 85.34% and 106.79%"}, {"measurement": "percentage specific [3H]CP55,940 binding", "setting": "CB2R WT; log [ligand] (M) -10", "value": "91.01% and 87.78% and 110.76%"}, {"measurement": "percentage specific [3H]CP55,940 binding", "setting": "CB2R-Quadruple^TM1,7; log [ligand] (M) -5", "value": "-3.75% and 13.92% and 33.90%"}, {"measurement": "percentage specific [3H]CP55,940 binding", "setting": "CB2R-Quadruple^TM1,7; log [ligand] (M) -6", "value": "31.56% and 68.45% and 21.77%"}, {"measurement": "percentage specific [3H]CP55,940 binding", "setting": "CB2R-Quadruple^TM1,7; log [ligand] (M) -7", "value": "107.34% and 102.91% and 64.85%"}, {"measurement": "percentage specific [3H]CP55,940 binding", "setting": "CB2R-Quadruple^TM1,7; log [ligand] (M) -8", "value": "162.50% and 142.72% and 87.25%"}, {"measurement": "percentage specific [3H]CP55,940 binding", "setting": "CB2R-Quadruple^TM1,7; log [ligand] (M) -9", "value": "116.72% and 143.53% and 100.93%"}, {"measurement": "percentage specific [3H]CP55,940 binding", "setting": "CB2R-Quadruple^TM1,7; log [ligand] (M) -10", "value": "74.84% and 102.27% and 99.53%"}, {"measurement": "Agonist-mediated activation", "setting": "CB1R I267ECL2L", "value": "0.9 ± 0.0", "unit": "fold over its basal"}, {"measurement": "percentage specific [3H]CP55,940 binding", "setting": "CB2R-I110^3.29L; log [ligand] (M) -5", "value": "4.49% and 2.95% and 7.70%"}, {"measurement": "percentage specific [3H]CP55,940 binding", "setting": "CB2R-I110^3.29L; log [ligand] (M) -6", "value": "22.45% and 22.51% and 25.37%"}, {"measurement": "percentage specific [3H]CP55,940 binding", "setting": "CB2R-I110^3.29L; log [ligand] (M) -7", "value": "63.92% and 66.51% and 68.51%"}, {"measurement": "percentage specific [3H]CP55,940 binding", "setting": "CB2R-I110^3.29L; log [ligand] (M) -8", "value": "89.64% and 87.54% and 115.07%"}, {"measurement": "percentage specific [3H]CP55,940 binding", "setting": "CB2R-I110^3.29L; log [ligand] (M) -9", "value": "93.11% and 90.99% and 98.90%"}, {"measurement": "percentage specific [3H]CP55,940 binding", "setting": "CB2R-I110^3.29L; log [ligand] (M) -10", "value": "86.70% and 95.29% and 99.01%"}, {"measurement": "Emax", "setting": "CB2R-E181^ECL2D", "value": "39 ± 6", "unit": "%"}, {"measurement": "drop in potency compared to WT", "setting": "CB2R-V261^6.51L; V261L mutant vs WT, [35S]GTPγS", "value": 10, "unit": "fold"}, {"measurement": "Emax", "setting": "CB2R-V261^6.51L; V261L mutant, at 10 µM compared to WT, read-out: Emax (%)", "value": "6 ± 2", "unit": "%"}, {"measurement": "[35S]GTPγS binding", "setting": "CB2R-V261^6.51L; log [ligand] (M) -5", "value": "2.52 percentage of WT and 5.75 percentage of WT and 9.01 percentage of WT"}, {"measurement": "[35S]GTPγS binding", "setting": "CB2R-V261^6.51L; log [ligand] (M) -6", "value": "-3.29 percentage of WT and 5.08 percentage of WT and 17.22 percentage of WT"}, {"measurement": "[35S]GTPγS binding", "setting": "CB2R-V261^6.51L; log [ligand] (M) -7", "value": "3.77 percentage of WT and -3.23 percentage of WT and 7.12 percentage of WT"}, {"measurement": "[35S]GTPγS binding", "setting": "CB2R-V261^6.51L; log [ligand] (M) -8", "value": "-13.41 percentage of WT and -9.01 percentage of WT and -7.07 percentage of WT"}, {"measurement": "[35S]GTPγS binding", "setting": "CB2R-V261^6.51L; log [ligand] (M) -9", "value": "-3.12 percentage of WT and -6.34 percentage of WT and -8.82 percentage of WT"}, {"measurement": "[35S]GTPγS binding", "setting": "CB2R-V261^6.51L; log [ligand] (M) -10", "value": "6.63 percentage of WT and -9.97 percentage of WT and -1.94 percentage of WT"}]}]}
